Consider seven test systems from the supplement of paper PMC6045584.

Compound in one assay: CO[C@H]1C[C@@H]2CC[C@@H](C)[C@@](O)(O2)C(=O)C(=O)N2CCCC[C@H]2C(=O)O[C@H]([C@H](C)C[C@@H]2CC[C@@H](OCCO)[C@H](OC)C2)CC(=O)[C@H](C)/C=C(\C)[C@@H](O)[C@@H](OC)C(=O)[C@H](C)C[C@H](C)/C=C/C=C/C=C/1C [EVEROLIMUS]
Put plainly: surviving fraction relative to DMSO-only wells; higher = less growth inhibition. The conditions noted are these: exposure time: 5 days. An outline of the steps: (§1)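 Log-phase tumour cell lines were seeded at 250–500 cells per well in 384-well plates. After 24 hours they were exposed continuously for five days to inhibitors at 0.5, 1, 5, 10, 50, 100, 500 and 1000 nM. Viability was read by CellTiter-Glo luminescence after 10 minutes at room temperature, and surviving fraction is luminescence normalised to the median of DMSO-only wells. Each line was screened three times and kept only if replicate Pearson r >0.7 and median Z' >0.3.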

Compound in a further assay: CCC1=C[C@@H]2CN(C1)Cc1c([nH]c3ccccc13)[C@@](C(=O)OC)(c1cc3c(cc1OC)N(C)[C@H]1[C@@](O)(C(=O)OC)[C@H](OC(C)=O)[C@]4(CC)C=CCN5CC[C@]31[C@@H]54)C2 [VINORELBINE]
Described as above. The conditions noted are these: exposure time: 5 days. An outline of the steps:
as §1

± gives the standard deviation of the averaged measurements.

As for C33A CERVIX, the surviving fraction with EVEROLIMUS (0.5 nM) stood at 0.757 ± 0.058; in the assay with EVEROLIMUS (1 nM), 0.649 ± 0.06; with EVEROLIMUS (5 nM) it was 0.469 ± 0.017; in the assay with EVEROLIMUS (10 nM) it was 0.432 ± 0.0057; in the assay with EVEROLIMUS (50 nM) it was 0.355 ± 0.027; with EVEROLIMUS (100 nM) it was 0.369 ± 0.028. The surviving fraction with EVEROLIMUS (500 nM) came out at 0.303 ± 0.051; with EVEROLIMUS (1000 nM), 0.277 ± 0.015; in the assay with VINORELBINE (0.5 nM), 1.02 ± 0.15; in the assay with VINORELBINE (1 nM), 1.02 ± 0.1; with VINORELBINE (5 nM), 1.03 ± 0.11; with VINORELBINE (10 nM), 0.78 ± 0.04. The surviving fraction turned out to be 0.121 ± 0.0098 in the assay with VINORELBINE (50 nM), 0.102 ± 0.028 with VINORELBINE (100 nM), 0.0543 ± 0.026 in the assay with VINORELBINE (500 nM) and 0.0423 ± 0.0078 in the assay with VINORELBINE (1000 nM).
Turning to CAL72 BONE, the surviving fraction was found to be 0.967 ± 0.17 with EVEROLIMUS (0.5 nM); 0.87 ± 0.16 with EVEROLIMUS (1 nM); 0.707 ± 0.12 with EVEROLIMUS (5 nM); 0.671 ± 0.1 with EVEROLIMUS (10 nM); 0.61 ± 0.056 with EVEROLIMUS (50 nM); 0.641 ± 0.057 with EVEROLIMUS (100 nM). The surviving fraction amounted to 0.576 ± 0.028 with EVEROLIMUS (500 nM); 0.608 ± 0.026 in the assay with EVEROLIMUS (1000 nM); 1.04 ± 0.036 with VINORELBINE (0.5 nM); 1.05 ± 0.036 with VINORELBINE (1 nM); 1 ± 0.024 with VINORELBINE (5 nM); 0.9417 ± 0.0083 with VINORELBINE (10 nM). The surviving fraction with VINORELBINE (50 nM) worked out at 0.43 ± 0.056; with VINORELBINE (100 nM), 0.34 ± 0.05; in the assay with VINORELBINE (500 nM), 0.213 ± 0.018; in the assay with VINORELBINE (1000 nM), 0.213 ± 0.026.
In the case of G292 BONE, the surviving fraction amounted to 0.803 ± 0.0075 with EVEROLIMUS (0.5 nM); 0.721 ± 0.038 with EVEROLIMUS (1 nM); 0.518 ± 0.015 in the assay with EVEROLIMUS (5 nM); 0.476 ± 0.024 in the assay with EVEROLIMUS (10 nM); 0.433 ± 0.0098 with EVEROLIMUS (50 nM); 0.436 ± 0.014 in the assay with EVEROLIMUS (100 nM). Also, the surviving fraction in the assay with EVEROLIMUS (500 nM) was 0.408 ± 0.015; in the assay with EVEROLIMUS (1000 nM), 0.405 ± 0.01; in the assay with VINORELBINE (0.5 nM) it was 0.962 ± 0.012; in the assay with VINORELBINE (1 nM) it was 1.01 ± 0.045; with VINORELBINE (5 nM), 0.704 ± 0.0075; with VINORELBINE (10 nM) it was 0.416 ± 0.013. The surviving fraction turned out to be 0.221 ± 0.02 with VINORELBINE (50 nM), 0.189 ± 0.0081 in the assay with VINORELBINE (100 nM), 0.144 ± 0.013 with VINORELBINE (500 nM) and 0.105 ± 0.011 with VINORELBINE (1000 nM).
On to HCC1395 BREAST, for which the surviving fraction in the assay with EVEROLIMUS (0.5 nM) came out at 1.18 ± 0.041; with EVEROLIMUS (1 nM) it was 1.08 ± 0.03; in the assay with EVEROLIMUS (5 nM) it was 1.19 ± 0.025; in the assay with EVEROLIMUS (10 nM) it was 0.998 ± 0.05; with EVEROLIMUS (50 nM), 1.02 ± 0.099; in the assay with EVEROLIMUS (100 nM), 1 ± 0.041. The surviving fraction with EVEROLIMUS (500 nM) is 0.974 ± 0.026; with EVEROLIMUS (1000 nM), 0.951 ± 0.056; with VINORELBINE (0.5 nM), 1.04 ± 0.21; in the assay with VINORELBINE (1 nM), 1.09 ± 0.16; in the assay with VINORELBINE (5 nM), 1.13 ± 0.077; with VINORELBINE (10 nM), 1.11 ± 0.031. For the same test system, the surviving fraction with VINORELBINE (50 nM) turned out to be 0.952 ± 0.083; in the assay with VINORELBINE (100 nM), 0.727 ± 0.12; with VINORELBINE (500 nM), 0.575 ± 0.16; in the assay with VINORELBINE (1000 nM), 0.467 ± 0.057.
For the test system HUO3N1 BONE, the surviving fraction worked out at 0.751 ± 0.021 in the assay with EVEROLIMUS (0.5 nM); 0.688 ± 0.011 with EVEROLIMUS (1 nM); 0.655 ± 0.013 with EVEROLIMUS (5 nM); 0.632 ± 0.016 with EVEROLIMUS (10 nM); 0.624 ± 0.043 with EVEROLIMUS (50 nM); 0.617 ± 0.042 with EVEROLIMUS (100 nM). The surviving fraction with EVEROLIMUS (500 nM) came out at 0.581 ± 0.031; with EVEROLIMUS (1000 nM), 0.607 ± 0.023; with VINORELBINE (0.5 nM), 1.01 ± 0.032; with VINORELBINE (1 nM), 1.02 ± 0.012; in the assay with VINORELBINE (5 nM) it was 1.03 ± 0.039; with VINORELBINE (10 nM), 0.935 ± 0.017. Moreover, the surviving fraction in the assay with VINORELBINE (50 nM) was 0.308 ± 0.039; with VINORELBINE (100 nM) it was 0.182 ± 0.025; in the assay with VINORELBINE (500 nM), 0.183 ± 0.0055; in the assay with VINORELBINE (1000 nM) it was 0.179 ± 0.018.
In the case of LNCAP PROSTATE, the surviving fraction with EVEROLIMUS (0.5 nM) was 0.679 ± 0.048; in the assay with EVEROLIMUS (1 nM) it was 0.544 ± 0.012; with EVEROLIMUS (5 nM), 0.409 ± 0.033; with EVEROLIMUS (10 nM) it was 0.404 ± 0.043; with EVEROLIMUS (50 nM) it was 0.285 ± 0.032; with EVEROLIMUS (100 nM), 0.288 ± 0.0055. The surviving fraction was found to be 0.219 ± 0.0032 in the assay with EVEROLIMUS (500 nM); 0.222 ± 0.0092 in the assay with EVEROLIMUS (1000 nM); 0.816 ± 0.12 with VINORELBINE (0.5 nM); 0.843 ± 0.12 with VINORELBINE (1 nM); 0.667 ± 0.038 in the assay with VINORELBINE (5 nM); 0.458 ± 0.056 with VINORELBINE (10 nM). The surviving fraction with VINORELBINE (50 nM) is 0.06 ± 0.0053; in the assay with VINORELBINE (100 nM), 0.054 ± 0.0044; with VINORELBINE (500 nM) it was 0.058 ± 0.001; with VINORELBINE (1000 nM), 0.0507 ± 0.0083.
Take SCC003 HEADNECK: the surviving fraction was 1.07 ± 0.043 in the assay with EVEROLIMUS (0.5 nM); 1 ± 0.04 in the assay with EVEROLIMUS (1 nM); 1.04 ± 0.035 with EVEROLIMUS (5 nM); 0.961 ± 0.036 with EVEROLIMUS (10 nM); 0.953 ± 0.037 with EVEROLIMUS (50 nM); 0.94 ± 0.094 in the assay with EVEROLIMUS (100 nM). Also, the surviving fraction in the assay with EVEROLIMUS (500 nM) is 0.923 ± 0.066; with EVEROLIMUS (1000 nM), 0.92 ± 0.061; with VINORELBINE (0.5 nM), 1.02 ± 0.16; with VINORELBINE (1 nM) it was 1.08 ± 0.067; with VINORELBINE (5 nM) it was 0.967 ± 0.13; with VINORELBINE (10 nM) it was 0.862 ± 0.064. Besides, the surviving fraction with VINORELBINE (50 nM) came to 0.271 ± 0.039; with VINORELBINE (100 nM), 0.256 ± 0.02; in the assay with VINORELBINE (500 nM), 0.34 ± 0.045; with VINORELBINE (1000 nM), 0.311 ± 0.036.
